Data set [1] can be described thus: Metabolic stability in human hepatic microsome. Format: in vitro ADME. Conditions: microsomes.
Data set [2] can be described thus: PAMPA (parallel artificial membrane permeability assay). Format: in vitro ADME. Conditions: for Papp at 18 hours, 50 µM: PAMPA. In short, it runs like this:
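Artificial membrane was 10% (w/v) egg lecithin plus 0.5% (w/v) cholesterol in dodecane on a PVDF filter. A 10 mM DMSO stock was added at 0.5% (v/v) to donor buffer (50 mM MOPSO, pH 6.5, 5.0% glycocholic acid). After 18 h at 37 °C, LC/MS or LC/UV gave donor and acceptor levels for Pe.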

Setting [3] is: pH 7.4, human hepatic microsome, NADPH(+), read-out: CL NADPH(+).
[4] abbreviates: membrane permeation rate (Pe), 50 mM MOPSO buffer pH 6.5 with 5.0% glycocholic acid, 37° C., 18 hours, read-out: iPAMPA Pe.

Where two headings read alike, the source gives them in different places. Starred links: 1 amine or outer side, 2 acyl side, 3 side chain; linkers in the order of their positions; H or OH if unused. Positions of bridges follow the written chain, without caps; N, C: chain ends. Non-standard residues stand in square brackets, D forms with d. Residues, ends and D or L forms follow the SMILES beside them. *: point of attachment. Phe(3-(CH2)4CO) = O=C([C@H](Cc1cccc(CCCCC(=O)[*:3])c1)N[*:1])[*:2]; NMePhe(3-Cl) = CN[C@@H](Cc1cccc(Cl)c1)C(=O)O; NMeF = CN[C@@H](Cc1ccccc1)C(=O)O; NMeI = CC[C@H](C)[C@H](NC)C(=O)O; NMeβAla = CN(CCC(=O)[*:2])[*:1]; NMeL = CN[C@@H](CC(C)C)C(=O)O; NMeV = CN[C@H](C(=O)O)C(C)C; NMeA = CN[C@@H](C)C(=O)O; Piperidide = C1CCN(*)CC1; dNMeA = CN[C@H](C)C(=O)O; β3hA = C[C@H](N)CC(=O)O; Sar = CNCC(=O)O; tBu = CC(C)(C)*

For the molecule `CC[C@H](C)[C@H]1C(=O)NCC(=O)N(C)[C@@H](CC(C)C)C(=O)N[C@@H](CC(C)C)C(=O)N[C@H](C(=O)N2CCCCC2)CC(=O)N(C)[C@@H](C)C(=O)N[C@@H](CC(C)C)C(=O)N(C)[C@@H](C)C(=O)N[C@@H]([C@@H](C)O)C(=O)N2CCC[C@H]2C(=O)N(C)[C@@H](Cc2ccccc2)C(=O)N[C@@H](Cc2ccccc2)C(=O)N1C` [DP-220] ([NMeA]L[NMeA]TP[NMeF]F[NMeI]G[NMeL]LD-Piperidide; lactam N-12), in data set [1] (human, pH 7.4, CL NADPH(+)), the microsomal CLint at 1 uM is 26 µL/min/mg. Besides, the Papp at 18 hours, 50 µM in data set [2] (pH 6.5) was determined as 33 ×10⁻⁶ cm/s.
On the same counts, the results for `CC[C@H](C)[C@H]1C(=O)N(C)[C@@H](CC(C)C)C(=O)N[C@H](C(=O)N2CCCCC2)CC(=O)N(C)CC(=O)N[C@@H]([C@@H](C)O)C(=O)N(C)[C@@H](C)C(=O)N(C)[C@@H](C(C)C)C(=O)N[C@@H](Cc2ccccc2)C(=O)N(C)CC(=O)N[C@@H](C)C(=O)N1C` [DP-75] ([Sar]T[NMeA][NMeV]F[Sar]A[NMeI][NMeL]D-Piperidide; lactam N-10) are 27 µL/min/mg and 3.3 ×10⁻⁶ cm/s.
On to `CC(C)C[C@H]1C(=O)N(C)[C@@H](C)C(=O)N[C@@H](C)C(=O)N(C)[C@@H](C)C(=O)N(C)[C@@H](Cc2ccccc2)C(=O)N(C)[C@@H](C)C(=O)N[C@@H]([C@@H](C)O)C(=O)N(C)[C@@H](C)C(=O)N(C)[C@@H](C)C(=O)N[C@H](C(=O)N(C)[C@@H](Cc2ccccc2)C(=O)N[C@@H](C)C(=O)N2CCCCC2)CC(=O)N(C)[C@@H](C)C(=O)N1C` [DP-368] ([NMeA][NMeL][NMeA]A[NMeA][NMeF][NMeA]T[NMeA][NMeA]D[NMeF]A-Piperidide; lactam N-11), for which, in data set [1] (setting [3]), the microsomal CLint at 1 uM was 6 µL/min/mg. Also, the Papp at 18 hours, 50 µM in data set [2] (setting [4]) turned out to be 1.6 ×10⁻⁶ cm/s.
Take `CC(C)C[C@H]1C(=O)N[C@@H](COC(C)(C)C)C(=O)N[C@H](C(=O)N2CCCCC2)CC(=O)N(C)[C@@H](C)C(=O)N(C)[C@@H](C)C(=O)N(C)[C@@H](Cc2ccccc2)C(=O)N(C)[C@@H](CC(C)C)C(=O)N[C@@H]([C@@H](C)O)C(=O)N(C)[C@@H](C)C(=O)N1C` [DP-267] ([NMeA][NMeA][NMeF][NMeL]T[NMeA][NMeL]S(tBu)D-Piperidide; lactam N-9): the microsomal CLint at 1 uM in data set [1] (setting [3]) was found to be 75 µL/min/mg. For the same molecule, in data set [2] (setting [4]), the Papp at 18 hours, 50 µM stood at 25 ×10⁻⁶ cm/s.
On the same counts, the results for `CC[C@H](C)[C@@H]1NC(=O)[C@H](Cc2ccccc2)N(C)C(=O)[C@H](CC(C)C)N(C)C(=O)[C@H](Cc2ccccc2)NC(=O)[C@H](C)N(C)C(=O)[C@H]([C@@H](C)O)NC(=O)CCN(C)C(=O)C[C@@H](C(=O)N2CCCCC2)NC(=O)[C@H](CC(C)C)N(C)C(=O)[C@H](C(C)C)N(C)C1=O` [DP-427] ([NMeβAla]T[NMeA]F[NMeL][NMeF]I[NMeV][NMeL]D-Piperidide; lactam N-10) are 141 µL/min/mg and 37 ×10⁻⁶ cm/s.
On the same counts, the results for `CC(C)C[C@H]1C(=O)N[C@@H](Cc2ccccc2)C(=O)N(C)[C@@H](C(C)C)C(=O)N(C)[C@@H](C)C(=O)N(C)[C@@H](Cc2ccccc2)C(=O)N[C@@H]([C@@H](C)O)C(=O)NCC(=O)N[C@H](C(=O)N(C)[C@@H](Cc2ccccc2)C(=O)N[C@@H](C)C(=O)N2CCCCC2)CC(=O)N(C)[C@@H](C)C(=O)N[C@@H](C)C(=O)N1C` [DP-375] ([NMeA]A[NMeL]F[NMeV][NMeA][NMeF]TGD[NMeF]A-Piperidide; lactam N-10) are 39 µL/min/mg and 19 ×10⁻⁶ cm/s.
For the molecule `CC(C)C[C@@H]1NC(=O)[C@H](Cc2ccccc2)N(C)C(=O)[C@H](Cc2ccccc2)N(C)C(=O)[C@H]([C@@H](C)O)NC(=O)CN(C)C(=O)[C@H](C)NC(=O)C[C@@H](C(=O)N2CCCCC2)NC1=O` [DP-751] (A[Sar]T[NMeF][NMeF]LD-Piperidide; lactam N-7), the microsomal CLint at 1 uM in data set [1] (setting [3]) is 156 µL/min/mg. The Papp at 18 hours, 50 µM in data set [2] (setting [4]) turned out to be 18 ×10⁻⁶ cm/s.
For `CC(C)C[C@H]1C(=O)N(C)[C@@H](Cc2ccccc2)C(=O)N(C)[C@@H](Cc2ccccc2)C(=O)N[C@@H]([C@@H](C)O)C(=O)N(C)[C@@H](C)C(=O)N(C)[C@@H](CC(C)C)C(=O)N[C@H](C(=O)N2CCCCC2)CC(=O)N(C)[C@@H](C)C(=O)N(C)[C@@H](CC(C)C)C(=O)N(C)[C@@H](CC(C)C)C(=O)N[C@@H](C)C(=O)N1C` [DP-158] ([NMeA][NMeL][NMeL]A[NMeL][NMeF][NMeF]T[NMeA][NMeL]D-Piperidide; lactam N-11) the same measures were 41 µL/min/mg and 49 ×10⁻⁶ cm/s.
On the same counts, the results for `CC(C)C[C@H]1C(=O)N[C@H](C(=O)N2CCCCC2)CC(=O)N(C)[C@H](C)C(=O)N(C)[C@@H](CC(C)C)C(=O)N[C@@H]([C@@H](C)O)C(=O)N(C)[C@@H](CC(C)C)C(=O)N[C@@H](COC(C)(C)C)C(=O)N1C` [DP-725] ([dNMeA][NMeL]T[NMeL]S(tBu)[NMeL]D-Piperidide; lactam N-7) are 138 µL/min/mg and 35 ×10⁻⁶ cm/s.
For `CC[C@H](C)[C@@H]1NC(=O)[C@H](Cc2ccccc2)NC(=O)[C@@H](C)N(C)C(=O)C[C@@H](C(=O)N2CCCCC2)NC(=O)[C@H](Cc2ccccc2)N(C)C(=O)[C@H](Cc2ccccc2)NC(=O)[C@H](CC(C)C)NC(=O)[C@H]([C@@H](C)O)NC(=O)[C@H](CC(C)C)NC(=O)[C@H](CC(C)C)N(C)C1=O` [DP-338] ([dNMeA]FI[NMeL]LTLF[NMeF]D-Piperidide; lactam N-10) the same measures were 146 µL/min/mg and 4.9 ×10⁻⁶ cm/s.
As to `CC[C@H](C)[C@@H]1NC(=O)[C@H](Cc2ccccc2)NC(=O)[C@@H]2CCCN2C(=O)[C@H](CC(C)C)N(C)C(=O)[C@H](Cc2ccccc2)NC(=O)[C@H](CC(C)C)NC(=O)[C@H]([C@@H](C)O)NC(=O)CCCCc2cccc(c2)C[C@@H](C(=O)N2CCCCC2)NC(=O)[C@H](CC(C)C)NC(=O)CN(C)C1=O` [DP-901] (TLF[NMeL]PFI[Sar]L[Phe(3-(CH2)4CO)]-Piperidide; lactam N-10), the microsomal CLint at 1 uM in data set [1] (setting [3]) worked out at 131 µL/min/mg. In data set [2] (setting [4]), the Papp at 18 hours, 50 µM worked out at 23 ×10⁻⁶ cm/s.
For `CC[C@H](C)[C@@H]1NC(=O)[C@H](CC(C)C)N(C)C(=O)CN(C)C(=O)[C@H]([C@@H](C)O)NC(=O)[C@H](C)N(C)C(=O)C[C@@H](C(=O)N[C@@H](C)C(=O)N2CCCCC2)NC(=O)[C@H](CC(C)C)N(C)C(=O)[C@H](Cc2ccccc2)N(C)C(=O)[C@H](CC(C)C)N(C)C1=O` [DP-664] ([NMeA]T[Sar][NMeL]I[NMeL][NMeF][NMeL]DA-Piperidide; lactam N-9), the microsomal CLint at 1 uM in data set [1] (setting [3]) was found to be 304 µL/min/mg. Also, the “iPAMPA Pe” value in data set [2] (membrane permeation rate (Pe), 50 mM MOPSO buffer pH 6.5 with 5.0% glycocholic acid, 37° C., 18 hours) was 7.0E−05.
`CC[C@H](C)[C@@H]1NC(=O)[C@H](CC(C)C)NC(=O)[C@H](CC(C)C)NC(=O)[C@H](C)N(C)C(=O)[C@H](C(C)C)NC(=O)[C@H](C)NC(=O)C[C@@H](C(=O)N2CCCCC2)NC(=O)[C@H](CC(C)C)NC(=O)[C@H]([C@@H](C)O)NC(=O)[C@@H]2CCCN2C(=O)[C@H](CC(C)C)NC(=O)[C@H](Cc2ccccc2)NC1=O` [DP-4] (AV[NMeA]LLIFLPTLD-Piperidide; lactam N-12) yielded a microsomal CLint at 1 uM in data set [1] (human, pH 7.4, CL NADPH(+)) of 42 µL/min/mg. Besides, the Papp at 18 hours, 50 µM in data set [2] (pH 6.5) worked out at 11 ×10⁻⁶ cm/s.
Consider `CC(C)C[C@H]1C(=O)N(C)[C@@H](C)C(=O)N[C@H](C(=O)N(C)[C@@H](Cc2ccccc2)C(=O)N[C@@H](C)C(=O)N2CCCCC2)CC(=O)N(C)[C@H](C)C(=O)N(C)[C@@H](C)C(=O)N[C@@H](C)C(=O)N(C)[C@@H](Cc2ccccc2)C(=O)N(C)[C@@H](C)C(=O)N(C)[C@@H](Cc2ccccc2)C(=O)N[C@@H]([C@@H](C)O)C(=O)N(C)[C@@H](C)C(=O)N1C` [DP-443] ([dNMeA][NMeA]A[NMeF][NMeA][NMeF]T[NMeA][NMeL][NMeA]D[NMeF]A-Piperidide; lactam N-11), for which the microsomal CLint at 1 uM in data set [1] (setting [3]) turned out to be 17 µL/min/mg. The Papp at 18 hours, 50 µM in data set [2] (setting [4]) came to 9.1 ×10⁻⁶ cm/s.
For `CC[C@H](C)[C@H](NC(=O)CN(C)C(=O)[C@H](Cc1ccccc1)N(C)C(=O)[C@H](CC(C)C)N(C)C(=O)[C@@H](NC(=O)[C@@H]1CC(=O)N(C)[C@@H](C)C(=O)N[C@@H](CC(C)C)C(=O)N(C)[C@@H](CC(C)C)C(=O)N(C)[C@@H](C)C(=O)N(C)[C@@H](Cc2cccc(Cl)c2)C(=O)N[C@@H]([C@@H](C)O)C(=O)N1)C(C)C)C(=O)N1CCCCC1` [DP-912] ([NMeA]L[NMeL][NMeA][NMePhe(3-Cl)]TDV[NMeL][NMeF][Sar]I-Piperidide; lactam N-7) the same measures were 8 µL/min/mg and 1.3 ×10⁻⁶ cm/s.
Turning to `CC(C)C[C@H]1C(=O)N(C)[C@@H](CC(C)C)C(=O)N[C@@H]([C@@H](C)O)C(=O)N(C)[C@@H](Cc2ccccc2)C(=O)N[C@@H](COC(C)(C)C)C(=O)N(C)[C@@H](CC(C)C)C(=O)N[C@H](C(=O)N2CCCCC2)CC(=O)N(C)CCC(=O)N1C` [DP-705] ([NMeβAla][NMeL][NMeL]T[NMeF]S(tBu)[NMeL]D-Piperidide; lactam N-8), the microsomal CLint at 1 uM in data set [1] (setting [3]) is 265 µL/min/mg. Besides, in data set [2] (setting [4]), the Papp at 18 hours, 50 µM came out at 49 ×10⁻⁶ cm/s.
In the case of `CC(C)C[C@H]1C(=O)N2CCC[C@H]2C(=O)N(C)[C@@H](CC(C)C)C(=O)N[C@@H](C)C(=O)N(C)[C@@H](C(C)C)C(=O)N[C@@H](C)CC(=O)N(C)[C@@H](C)C(=O)N[C@@H]([C@@H](C)O)C(=O)N(C)CC(=O)N(C)[C@@H](Cc2ccccc2)C(=O)N(C)[C@@H](Cc2ccccc2)C(=O)N1C` [DP-768] (cyclo(A[NMeV][β3hA][NMeA]T[Sar][NMeF][NMeF][NMeL]P[NMeL])), the microsomal CLint at 1 uM in data set [1] (human, pH 7.4, CL NADPH(+)) stood at 34 µL/min/mg. Moreover, the Papp at 18 hours, 50 µM in data set [2] (pH 6.5) came to 25 ×10⁻⁶ cm/s.
